From PMC4970510 (Journal of Medicinal Chemistry, 2016)
Entries after “also recorded” stand apart in the source; their conditions may differ.

Experiments:
[1] = biological target: T1, hA3AR (Homo sapiens, UniProt P0DMS8); assay: Radioligand binding at hA3AR; details: ratio of hA3AR Ki
T1 sequence (P0DMS8 1-318): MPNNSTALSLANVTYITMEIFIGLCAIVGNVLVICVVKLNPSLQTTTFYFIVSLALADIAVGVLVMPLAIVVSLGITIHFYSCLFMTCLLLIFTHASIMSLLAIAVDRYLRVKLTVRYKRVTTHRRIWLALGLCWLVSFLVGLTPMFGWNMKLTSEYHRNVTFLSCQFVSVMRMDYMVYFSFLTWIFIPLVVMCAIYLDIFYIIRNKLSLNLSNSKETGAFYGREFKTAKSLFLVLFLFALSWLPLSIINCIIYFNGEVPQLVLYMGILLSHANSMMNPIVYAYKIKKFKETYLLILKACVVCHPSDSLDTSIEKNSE

[2] = biological target: T2, mA3AR (Mus musculus, UniProt Q61618); type: cell-based; details: compared to reference full agonist 55
T2 sequence (Q61618 1-319): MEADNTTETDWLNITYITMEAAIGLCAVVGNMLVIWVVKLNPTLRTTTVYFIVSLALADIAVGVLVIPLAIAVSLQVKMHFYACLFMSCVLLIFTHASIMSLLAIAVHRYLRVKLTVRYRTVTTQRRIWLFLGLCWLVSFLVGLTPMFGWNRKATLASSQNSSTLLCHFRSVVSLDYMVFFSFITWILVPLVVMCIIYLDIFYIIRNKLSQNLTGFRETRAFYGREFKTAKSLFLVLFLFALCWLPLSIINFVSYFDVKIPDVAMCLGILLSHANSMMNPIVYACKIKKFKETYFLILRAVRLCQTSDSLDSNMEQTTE

[3] = tested on: mouse chronic constriction injury (CCI) model; assay: Mouse chronic constriction injury; type: in vivo; details: po, 3 μmol/kg
[4] = biological target: T3, hA1AR (Homo sapiens, UniProt P30542); assay: Radioligand binding at hA1AR
T3 sequence (P30542 1-326): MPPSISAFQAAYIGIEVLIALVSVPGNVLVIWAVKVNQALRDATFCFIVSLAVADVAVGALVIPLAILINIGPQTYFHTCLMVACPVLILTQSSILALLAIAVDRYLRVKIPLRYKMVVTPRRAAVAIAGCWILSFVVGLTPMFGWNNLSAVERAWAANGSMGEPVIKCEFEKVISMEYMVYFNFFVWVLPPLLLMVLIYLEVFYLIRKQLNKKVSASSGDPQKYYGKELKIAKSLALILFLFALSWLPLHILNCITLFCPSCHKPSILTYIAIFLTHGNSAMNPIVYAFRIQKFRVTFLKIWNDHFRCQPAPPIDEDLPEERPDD

[5] = biological target: hA2AAR (Homo sapiens, UniProt P29274); assay: Radioligand binding at hA2AAR
hA2AAR, sequence (P29274 whole entry): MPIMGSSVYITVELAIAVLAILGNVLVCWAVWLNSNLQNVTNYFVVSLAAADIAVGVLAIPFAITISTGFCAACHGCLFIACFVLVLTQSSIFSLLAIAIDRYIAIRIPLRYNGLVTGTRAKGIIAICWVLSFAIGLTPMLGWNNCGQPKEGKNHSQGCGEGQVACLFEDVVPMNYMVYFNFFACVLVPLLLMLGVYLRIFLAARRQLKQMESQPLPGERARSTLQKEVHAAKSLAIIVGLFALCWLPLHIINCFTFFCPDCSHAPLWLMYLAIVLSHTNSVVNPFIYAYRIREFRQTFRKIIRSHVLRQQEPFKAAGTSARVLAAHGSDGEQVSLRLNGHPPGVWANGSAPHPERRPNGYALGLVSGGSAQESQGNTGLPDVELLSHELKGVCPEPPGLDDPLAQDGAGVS

[6] = biological target: T1, hA3AR; type: cell-based; details: relative to 1 at 10 μM, CHO cells
[7] = PDSP broad off-target screen of receptors and channels; type: binding; details: PDSP screen of diverse receptors
[8] = tested on: human A2BAR; details: at 1 mM, human fibroblasts; cited from earlier work
[9] = tested on: canine coronary artery A2AAR; details: activation of canine coronary artery A2AAR; cited from earlier work
[10] = tested on: adenosine deaminase; details: cited from earlier work
[11] = biological target: human dopamine transporter (hDAT) (Homo sapiens, UniProt Q01959); assay: PDSP radioligand binding at human dopamine transporter; details: at 10 μM, [3H] tropane radioligand
human dopamine transporter (hDAT), sequence (Q01959 whole entry): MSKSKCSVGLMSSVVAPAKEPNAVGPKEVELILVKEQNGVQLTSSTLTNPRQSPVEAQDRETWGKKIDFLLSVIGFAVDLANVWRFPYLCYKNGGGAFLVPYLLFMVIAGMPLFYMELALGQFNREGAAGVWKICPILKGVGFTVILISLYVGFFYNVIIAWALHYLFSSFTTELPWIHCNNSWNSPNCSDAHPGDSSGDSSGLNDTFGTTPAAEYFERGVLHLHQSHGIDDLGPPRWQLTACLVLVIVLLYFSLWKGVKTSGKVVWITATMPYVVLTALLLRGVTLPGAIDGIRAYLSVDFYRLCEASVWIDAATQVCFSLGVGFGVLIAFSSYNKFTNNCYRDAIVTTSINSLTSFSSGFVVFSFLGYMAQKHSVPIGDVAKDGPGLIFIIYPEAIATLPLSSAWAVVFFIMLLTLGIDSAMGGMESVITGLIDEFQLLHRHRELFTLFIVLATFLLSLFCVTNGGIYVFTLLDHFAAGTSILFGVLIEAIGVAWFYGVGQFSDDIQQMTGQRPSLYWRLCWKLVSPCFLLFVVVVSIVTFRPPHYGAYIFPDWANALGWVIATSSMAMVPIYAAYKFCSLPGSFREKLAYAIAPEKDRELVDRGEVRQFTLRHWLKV

[12] = tested on: mouse chronic constriction injury (CCI) model; details: same dose (3 μmol/kg po); cited from earlier work

## CNC(=O)[C@@]12C[C@@H]1[C@@H](n1cnc3c(/C=C(\O)c4ccccc4)nc(C#Cc4ccccc4)nc31)[C@H](O)[C@@H]2O [Compound 12, (1S,2R,3S,4R,5S)-2,3-Dihydroxy-4-(6-((Z)-2-hydroxy-2-phenylvinyl)-2-(phenylethynyl)-9H-purin-9-yl)-N-methylbicyclo[3.1.0]hexane-1-carboxamide]
[1]
  Fold more potent at hA3AR than C2–Cl derivative 11b: 15 fold
[2]
  mA3AR agonist efficacy: full agonists
[3]; day 7
  Reversal of mechanoallodynia (neuropathic pain): efficacious in reducing pain
  Reversal of the pain: < 100%

## CNC(=O)[C@@]12C[C@@H]1[C@@H](n1cnc3cnc(C#Cc4ccc(Cl)s4)nc31)[C@H](O)[C@@H]2O [Compound 21, (1S,2R,3S,4R,5S)-4-(2-((5-Chlorothiophen-2-yl)ethynyl)-9H-purin-9-yl)-2,3-dihydroxy-N-methylbicyclo[3.1.0]hexane-1-carboxamide]
[4]
  Ki: > 10 µM
[5]
  Ki: > 10 µM
[6]
  hA3AR agonist efficacy: potent, full agonists
[3]; day 7
  Duration of action: at least 5 h
  Reversal of mechanoallodynia (neuropathic pain): clearly more efficacious and longer lasting; also recorded: completely reversing mechanoallodynia
[3]; day 7, listed as MRS7220
  Reversal of mechanoallodynia (neuropathic pain): completely reversed
[7]
  Off-target interactions: no off-target interactions

## CNC(=O)[C@@]12C[C@@H]1[C@@H](n1cnc3c(C)nc(C#Cc4ccc(Cl)s4)nc31)[C@H](O)[C@@H]2O [Compound 19, (1S,2R,3S,4R,5S)-4-(2-((5-Chlorothiophen-2-yl)ethynyl)-6-methyl-9H-purin-9-yl)-2,3-dihydroxy-N-methylbicyclo[3.1.0]hexane-1-carboxamide]
[4]
  Ki: > 10 µM
[5]
  Ki: > 10 µM
[6]
  hA3AR agonist efficacy: potent, full agonists

## OC[C@H]1O[C@@H](n2cnc3cncnc32)[C@H](O)[C@@H]1O [Compound 56, purine-9-riboside]
[8]
  Efficacy relative to 10 μM adenosine: 15%
[9]
  Fold less potent than adenosine: 40 fold
[10]
  Adenosine deaminase inhibition: weak inhibitor

## Cc1ncnc2c1ncn2[C@@H]1O[C@H](CO)[C@@H](O)[C@H]1O [6-methylpurine-9-riboside]
[8]
  Efficacy relative to 10 μM adenosine: 6%

## CNC(=O)[C@@]12C[C@@H]1[C@@H](n1cnc3c(C)nc(C#Cc4ccccc4)nc31)[C@H](O)[C@@H]2O [Compound 15]
[3]; day 7
  Reversal of mechanoallodynia (neuropathic pain): efficacious in reducing pain
  Reversal of the pain: < 100%
[11]
  Enhancement of hDAT radioligand binding: roughly 200%
[7]
  Off-target interactions: no significant binding inhibition

## CNC(=O)[C@@]12C[C@@H]1[C@@H](n1cnc3c(NCc4cccc(Cl)c4)nc(C#Cc4ccc(F)c(F)c4)nc31)[C@H](O)[C@@H]2O [Compound 8]
[12]
  Protection against mechanoallodynia at 1 h: 100%
